{"source": "ChEMBL document CHEMBL4043286", "about": "“Exploiting the S4-S5 Specificity of Human Neutrophil Proteinase 3 to Improve the Potency of Peptidyl Di(chlorophenyl)-phosphonate Ester Inhibitors: A Kinetic and Molecular Modeling Analysis” (J Med Chem, 2018)", "molecular_target": "T1, Neutrophil elastase (Homo sapiens) (UniProt P08246)", "T1 sequence (whole entry)": "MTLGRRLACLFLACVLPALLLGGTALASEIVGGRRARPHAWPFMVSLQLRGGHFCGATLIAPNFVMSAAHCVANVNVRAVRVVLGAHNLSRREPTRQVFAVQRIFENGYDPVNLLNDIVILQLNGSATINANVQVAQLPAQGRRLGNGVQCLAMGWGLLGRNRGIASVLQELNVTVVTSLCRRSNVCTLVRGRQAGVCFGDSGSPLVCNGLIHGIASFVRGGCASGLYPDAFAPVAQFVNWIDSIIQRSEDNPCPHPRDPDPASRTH", "assay": "Inhibition of NE in cystic fibrosis patient sputum supernatant at 5 to 10 nM using ABZ-APEEIMRRQ-EDDnp as substrate after 20 mins by spectrophotometric method", "note": "Calls of active or inactive are those of the source. The rule behind the calls is not given here."}
{"smiles": "CCCC(NC(=O)[C@H](CC(=O)O)NC(=O)[C@H](Cc1ccc(O)cc1)NC(=O)[C@@H](NC(=O)CCCC[C@@H]1SC[C@@H]2NC(=O)N[C@@H]21)C(C)C)P(=O)(Oc1ccc(Cl)cc1)Oc1ccc(Cl)cc1", "note": "(stereo partly specified)", "values": [{"measurement": "inhibition", "result": "inactive"}]}
